Non-standard residues stand in square brackets, D forms with d. No end group written: not given here. Cit = NC(=O)NCCC[C@H](N)C(=O)O
System: apoE−/− mice
Experiment: Atherosclerosis in apoE−/− mice on high-fat western diet, whole aorta Oil-Red O staining
Type: in vivo, mouse
Conditions: IP 30 mg/kg at 48 hour intervals for 6 weeks
Procedure: Male apoE^−/− mice at 8 weeks of age were fed a high-fat western diet for 14 weeks. Mice were subsequently randomized to either a control group to receive IP injection of vehicle alone or lipid-free peptide (30 mg/kg) at 48 hour intervals for 6 weeks. […] The extent of whole aorta covered with fatty lesions is shown, determined by Oil-Red O staining. Values are means±SD, n=10 mice per group.
CS6253, another synthesis batch of T5237-4, was administered IP at 10 mg/kg for 10 weeks showing again reduction of substantial atherosclerosis in apoE^−/− mice (FIG. 36). Male apoE^−/− mice at 8 weeks of age were fed a high-fat western diet for 14 weeks. Mice were subsequently randomized to either a control group to receive IP injection of vehicle alone or lipid-free CS6253 (10 mg/kg) at 48 hour intervals for 10 weeks while the mice remained on high-fat western diet. The extent of whole aorta covered with fatty lesions is shown, determined by Oil-Red O staining. Values are means±SD, n=10 mice per group.
CS6253 administered SC also reduce substantial atherosclerosis in apoE KO mice. Male apoE−/− mice at 8 weeks of age were fed a high-fat western diet for 14 weeks (FIG. 37). One group was terminated before treatment start as baseline control. Mice were subsequently randomized to one of 3 arms to receive subcutaneous (SC) injection alternate days for 6 weeks; vehicle alone, CS6253 30 mg/kg or CS6253 60 mg/kg. During the first 4 treatment weeks the mice remained on high-fat western diet while during the last two weeks of treatment they were switched to chow diet. The extent of whole aorta covered with fatty lesions is shown, determined by Oil-Red O staining. Values are means±SD, n=10 mice per group.

T5460-1: citrulline form of LeuATI-5261 possessing a single R3→Citrulline substitution (EV[Cit]SKLEEWLAALRELAEELLARLKS)
extent of whole aorta covered with fatty lesions: reduced atherosclerosis
